Experimental data reported in PubChem BioAssay (NCI).
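Step 1: Grow cells in 96-well plates. Step 2: Expose to compound for 48 hours at 5 concentrations. Step 3: Interpolate endpoints linearly; if unreached, use highest concentration. GI50 = concentration required for 50% inhibition of growth. TGI marks complete inhibition of growth.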

Legend:
Test in all cases: DTP human tumour cell line panel, 48 h
UACC-257 melanoma = test system: UACC-257 melanoma
PC-3 prostate = test system: PC-3 prostate
EKVX NSCLC = test system: EKVX NSCLC
LOX IMVI melanoma = test system: LOX IMVI melanoma
TK-10 renal = test system: TK-10 renal
NCI-H522 lung = test system: NCI-H522 lung
MALME-3M melanoma = test system: MALME-3M melanoma
SK-MEL-5 melanoma = test system: SK-MEL-5 melanoma
NCI-H226 lung = test system: NCI-H226 lung
HOP-62 NSCLC = test system: HOP-62 NSCLC
SK-OV-3 ovarian = test system: SK-OV-3 ovarian
IGROV1 ovarian = test system: IGROV1 ovarian
K-562 leukemia = test system: K-562 leukemia
DU-145 prostate = test system: DU-145 prostate
CAKI-1 renal = test system: CAKI-1 renal
RXF 393 renal = test system: RXF 393 renal
SK-MEL-28 melanoma = test system: SK-MEL-28 melanoma
HCC-2998 colon = test system: HCC-2998 colon
CCRF-CEM leukemia = test system: CCRF-CEM leukemia
COLO 205 colon = test system: COLO 205 colon
UACC-62 melanoma = test system: UACC-62 melanoma
MDA-MB-435 = test system: MDA-MB-435
NCI-H460 lung = test system: NCI-H460 lung
786-0 renal = test system: 786-0 renal
RPMI-8226 leukemia = test system: RPMI-8226 leukemia
A498 renal = test system: A498 renal
MOLT-4 leukemia = test system: MOLT-4 leukemia
ACHN renal = test system: ACHN renal
HL-60(TB) leukemia = test system: HL-60(TB) leukemia
SW-620 colon = test system: SW-620 colon
SR leukemia = test system: SR leukemia
HOP-92 NSCLC = test system: HOP-92 NSCLC
SN12C renal = test system: SN12C renal
OVCAR-4 ovarian = test system: OVCAR-4 ovarian
HT29 colon = test system: HT29 colon
SF-268 CNS = test system: SF-268 CNS
HS 578T breast = test system: HS 578T breast
HCT-15 colon = test system: HCT-15 colon
SNB-19 CNS = test system: SNB-19 CNS
HCT-116 colon = test system: HCT-116 colon
MDA-MB-231 breast = test system: MDA-MB-231 breast
KM12 colon = test system: KM12 colon
SK-MEL-2 melanoma = test system: SK-MEL-2 melanoma
OVCAR-3 ovarian = test system: OVCAR-3 ovarian
OVCAR-5 ovarian = test system: OVCAR-5 ovarian
U251 CNS = test system: U251 CNS
UO-31 renal = test system: UO-31 renal
SF-295 CNS = test system: SF-295 CNS
NCI/ADR-RES ovarian = test system: NCI/ADR-RES ovarian
NCI-H23 lung = test system: NCI-H23 lung
BT-549 breast = test system: BT-549 breast
SF-539 CNS = test system: SF-539 CNS
MCF7 breast = test system: MCF7 breast
SNB-75 CNS = test system: SNB-75 CNS
T-47D breast = test system: T-47D breast
OVCAR-8 ovarian = test system: OVCAR-8 ovarian
M14 melanoma = test system: M14 melanoma
A549 NSCLC = test system: A549 NSCLC

SMILES: N#Cc1nc(-c2cccnc2)oc1N
- TGI (UACC-257 melanoma): > 100 µM
- TGI (PC-3 prostate): > 100 µM
- TGI (EKVX NSCLC): > 100 µM
- TGI (LOX IMVI melanoma): > 100 µM
- TGI (TK-10 renal): > 100 µM
- TGI (NCI-H522 lung): > 100 µM
- TGI (MALME-3M melanoma): > 100 µM
- TGI (SK-MEL-5 melanoma): > 100 µM
- TGI (NCI-H226 lung): > 100 µM
- TGI (HOP-62 NSCLC): > 100 µM
- TGI (SK-OV-3 ovarian): > 100 µM
- TGI (IGROV1 ovarian): > 100 µM
- TGI (K-562 leukemia): > 100 µM
- TGI (DU-145 prostate): > 100 µM
- TGI (CAKI-1 renal): > 100 µM
- TGI (RXF 393 renal): > 100 µM
- TGI (SK-MEL-28 melanoma): > 100 µM
- TGI (HCC-2998 colon): > 100 µM
- TGI (CCRF-CEM leukemia): > 100 µM
- TGI (COLO 205 colon): > 100 µM
- TGI (UACC-62 melanoma): > 100 µM
- TGI (MDA-MB-435): > 100 µM
- TGI (NCI-H460 lung): > 100 µM
- TGI (786-0 renal): > 100 µM
- TGI (RPMI-8226 leukemia): > 100 µM
- TGI (A498 renal): > 100 µM
- TGI (MOLT-4 leukemia): > 100 µM
- TGI (ACHN renal): > 100 µM
- TGI (HL-60(TB) leukemia): > 100 µM
- TGI (SW-620 colon): > 100 µM
- TGI (SR leukemia): > 100 µM
- TGI (HOP-92 NSCLC): > 100 µM
- TGI (SN12C renal): > 100 µM
- TGI (OVCAR-4 ovarian): > 100 µM
- TGI (HT29 colon): > 100 µM
- TGI (SF-268 CNS): > 100 µM
- TGI (HS 578T breast): > 100 µM
- TGI (HCT-15 colon): > 100 µM
- TGI (SNB-19 CNS): > 100 µM
- TGI (HCT-116 colon): > 100 µM
- TGI (MDA-MB-231 breast): > 100 µM
- TGI (KM12 colon): > 100 µM
- TGI (SK-MEL-2 melanoma): > 100 µM
- TGI (OVCAR-3 ovarian): > 100 µM
- TGI (OVCAR-5 ovarian): > 100 µM
- TGI (U251 CNS): > 100 µM
- TGI (UO-31 renal): > 100 µM

SMILES: O=[N+]([O-])c1cc([N+](=O)[O-])c(N2CCCC2)cc1NN=C(c1ccc(O)cc1)c1ccc(O)cc1
- GI50 (UACC-257 melanoma): 13.6 µM
- TGI (UACC-257 melanoma): 26.9 µM
- GI50 (SF-295 CNS): 1.48 µM
- TGI (SF-295 CNS): 5.36 µM
- GI50 (PC-3 prostate): 6.07 µM
- TGI (PC-3 prostate): > 100 µM
- GI50 (EKVX NSCLC): 0.508 µM
- TGI (EKVX NSCLC): 23.9 µM
- GI50 (LOX IMVI melanoma): 3.28 µM
- TGI (LOX IMVI melanoma): 14.6 µM
- GI50 (TK-10 renal): 11.6 µM
- TGI (TK-10 renal): 35.8 µM
- GI50 (NCI-H522 lung): 12.8 µM
- TGI (NCI-H522 lung): 45.6 µM
- GI50 (MALME-3M melanoma): 14.9 µM
- TGI (MALME-3M melanoma): 35 µM
- GI50 (NCI/ADR-RES ovarian): 13.6 µM
- TGI (NCI/ADR-RES ovarian): 37.9 µM
- GI50 (SK-MEL-5 melanoma): 2.73 µM
- TGI (SK-MEL-5 melanoma): 15.3 µM
- GI50 (NCI-H226 lung): 16.9 µM
- TGI (NCI-H226 lung): 45.8 µM
- GI50 (HOP-62 NSCLC): 10.3 µM
- TGI (HOP-62 NSCLC): 24.5 µM
- GI50 (SK-OV-3 ovarian): 7.44 µM
- TGI (SK-OV-3 ovarian): 19.8 µM
- GI50 (IGROV1 ovarian): 3.96 µM
- TGI (IGROV1 ovarian): 16.9 µM
- GI50 (NCI-H23 lung): 9.46 µM
- TGI (NCI-H23 lung): 23.3 µM
- GI50 (K-562 leukemia): 2.35 µM
- TGI (K-562 leukemia): 21 µM
- GI50 (DU-145 prostate): 7.43 µM
- TGI (DU-145 prostate): 20.2 µM
- GI50 (CAKI-1 renal): 6.23 µM
- TGI (CAKI-1 renal): 21.1 µM
- GI50 (RXF 393 renal): 3.12 µM
- TGI (RXF 393 renal): 12.8 µM
- GI50 (SK-MEL-28 melanoma): 3.39 µM
- TGI (SK-MEL-28 melanoma): 13.8 µM
- GI50 (HCC-2998 colon): 4.12 µM
- TGI (HCC-2998 colon): 14.5 µM
- GI50 (BT-549 breast): 18.5 µM
- TGI (BT-549 breast): 75.3 µM
- GI50 (CCRF-CEM leukemia): 2.17 µM
- TGI (CCRF-CEM leukemia): 21.5 µM
- GI50 (SF-539 CNS): 12.4 µM
- TGI (SF-539 CNS): 24.8 µM
- GI50 (COLO 205 colon): 3.79 µM
- TGI (COLO 205 colon): 15.5 µM
- GI50 (UACC-62 melanoma): 5.82 µM
- TGI (UACC-62 melanoma): 19 µM
- GI50 (MDA-MB-435): 2.52 µM
- TGI (MDA-MB-435): 14.4 µM
- GI50 (NCI-H460 lung): 4.21 µM
- TGI (NCI-H460 lung): 15.9 µM
- GI50 (786-0 renal): 6.88 µM
- TGI (786-0 renal): 19.8 µM
- GI50 (RPMI-8226 leukemia): 3.78 µM
- TGI (RPMI-8226 leukemia): 24 µM
- GI50 (A498 renal): 5.34 µM
- TGI (A498 renal): 16.7 µM
- GI50 (MCF7 breast): 3.55 µM
- TGI (MCF7 breast): 20.1 µM
- GI50 (MOLT-4 leukemia): 3.36 µM
- TGI (MOLT-4 leukemia): > 100 µM
- GI50 (ACHN renal): 2.31 µM
- TGI (ACHN renal): 11.7 µM
- GI50 (HL-60(TB) leukemia): 7.89 µM
- TGI (HL-60(TB) leukemia): 37.5 µM
- GI50 (SW-620 colon): 9.15 µM
- TGI (SW-620 colon): 21.2 µM
- GI50 (SR leukemia): 5.98 µM
- TGI (SR leukemia): 30.9 µM
- GI50 (SNB-75 CNS): 1.34 µM
- TGI (SNB-75 CNS): 6.4 µM
- GI50 (HOP-92 NSCLC): 10.1 µM
- TGI (HOP-92 NSCLC): 26.4 µM
- GI50 (SN12C renal): 10.1 µM
- TGI (SN12C renal): 23.3 µM
- GI50 (OVCAR-4 ovarian): 4.03 µM
- TGI (OVCAR-4 ovarian): 40 µM
- GI50 (T-47D breast): 0.681 µM
- TGI (T-47D breast): 4.76 µM
- GI50 (OVCAR-8 ovarian): 9.86 µM
- TGI (OVCAR-8 ovarian): 60.5 µM
- GI50 (HT29 colon): 3.41 µM
- TGI (HT29 colon): 14.5 µM
- GI50 (SF-268 CNS): 2.99 µM
- TGI (SF-268 CNS): 12.6 µM
- GI50 (M14 melanoma): 9.62 µM
- TGI (M14 melanoma): 22.1 µM
- GI50 (HCT-15 colon): 3.98 µM
- TGI (HCT-15 colon): 15.9 µM
- GI50 (SNB-19 CNS): 7.06 µM
- TGI (SNB-19 CNS): 21.6 µM
- GI50 (HCT-116 colon): 4.54 µM
- TGI (HCT-116 colon): 16.5 µM
- GI50 (MDA-MB-231 breast): 4.01 µM
- TGI (MDA-MB-231 breast): 16 µM
- GI50 (A549 NSCLC): 3.82 µM
- TGI (A549 NSCLC): 16.4 µM
- GI50 (KM12 colon): 3.51 µM
- TGI (KM12 colon): 14.1 µM
- GI50 (SK-MEL-2 melanoma): 7.04 µM
- TGI (SK-MEL-2 melanoma): 24.3 µM
- GI50 (OVCAR-3 ovarian): 2.41 µM
- TGI (OVCAR-3 ovarian): 7.65 µM
- GI50 (OVCAR-5 ovarian): 17.2 µM
- TGI (OVCAR-5 ovarian): 30.9 µM
- GI50 (U251 CNS): 4.81 µM
- TGI (U251 CNS): 18.3 µM
- GI50 (UO-31 renal): 5.54 µM
- TGI (UO-31 renal): 18.5 µM
